{
  "source": "patent EP0285883A2",
  "about": "“Bactobolin as a prophylactic or therapeutic agent for autoimmune diseases, and as an immuno-suppressive agent” (ZAIDAN HOJIN BISEIBUTSU KAGAKU KENKYU KAI, priority 1987, dated 1988)",
  "key": {"[1]": {"system": "Acute Experimental Autoimmune Encephalomyelitis (EAE) of Rat", "assay": "Test 1: acute EAE of rat, treatment during the induction phase", "format": "in vivo, rats", "details": "for Incidence of EAE Number of animals affected/Number of animals tested: 0.5 mg/Kg intraperitoneal daily, observed for 16 days after immunization; for Histologic score (±SD): treatment during the inductive phase, mean of six separate sections incl. spinal cord and brain, ratings zero to 4", "description": "To animals (rats) as sensitized with myelin basic protein/complete Freund adjuvant (hereinafter affreviated as MBP/CFA) for immunization, 0.5 mg/kg of bactobolin was administered by intraperitoneal injection daily from the next day (Day 1) of the immunization to Day 8. This administration period corresponds approximately to the induction phase of EAE."}, "EAE [2]": {"system": "EAE", "assay": "Test 2: EAE in MBP/CFA-immunized rats, treatment during the effector phase (Day 8-14)", "format": "in vivo", "details": "for Histologic score (±SD): treatment during the effector phase, evaluated for 15 days after the immunization", "description": "Bactobolin was administered intraperitoneally to the MBP/CFA-immunized animals (rats) during a period (Day 8-14), which was considered to correspond primarily to the effector phase of EAE, and during this period the effects of bactobolin was estimated."}, "EAE [3]": {"system": "EAE", "assay": "Test 3: EAE, treatment started after onset of clinical signs", "format": "in vivo", "details": "0.5 mg/Kg i.p., started on the day of the first clinical sign", "description": "A study was conducted to determine whether the intraperitoneal administration of bactobolin made after the incidence of EAE was therapeutically effective, or not."}, "Passively Induced EAE": {"system": "Passively Induced EAE", "assay": "Test 4: passively induced EAE (transfer of precultured spleen cells)", "format": "in vivo, rats", "details": "0.5 mg/Kg, sacrificed Day 9 P.I."}, "lymph node cells": {"system": "lymph node cells", "assay": "Test 5: lymphocyte proliferative responses of lymph node cells from treated rats (tritiated thymidine uptake)", "format": "in vivo", "description": "Using lymph node cells which were separately collected separately from control rats and from the bactobolin-intraperitoneally administered rats on Day 11 (the 11th day after the sensitization), the lymphocyte proliferative responses to specific antigen, as well as the response to Con A were assessed.\nNote 1:- Animals belonging to Bactobolin-administered group were daily intraperitoneally with 0.5mg/kg of bactobolin from Day 1 P.I. to Day 8 P.I., and the control animals were treated with PBS. Note 2:-Lymph node cells were obtained from control and bactobolin-treated rats 11 days after the sensitization. These lymphoid cells were cultured with GPBP (10 µg/mℓ), PPD (10 µg/mℓ) or Con A (2 µg/mℓ) for 3 days. The proliferative responses were assessed by measuring the uptake of tritiated thymidine.\nIn the above, CPM means the measured number of count per minute; MBP means myelin basic protein; PPD means a purified protein derivative; and Con A means concanavalin A."}, "mouse": {"system": "mouse", "details": "in mouse, intravenous; cited from earlier work"}},
  "note": "“And” between values parts separate entries of the source, which are not always exact repeats. Equal values may be shown once.",
  "data": [
    {"smiles": "C[C@H](N)C(=O)N[C@@H]1[C@H]2C(=C(O)C[C@@H](O)[C@@H]2O)C(=O)O[C@]1(C)C(Cl)Cl", "note": "[Bactobolin, bactobolin]", "values": [
      {"measurement": "Paralysis score (±SD)", "setting": "[1]; 0.5 mg/Kg i.p. daily, Day 1-8 (induction phase), sum of the scores daily estimated during the disease", "result": "0 ± 0"},
      {"measurement": "Incidence of EAE Number of animals affected/Number of animals tested", "setting": "[1]; Day 1-8 (induction phase)", "result": "0/5"},
      {"measurement": "Incidence of EAE Number of animals affected/Number of animals tested", "setting": "[1]; Day 1-8 (induction phase), listed as bactobolin", "result": "none of the rats developed EAE"},
      {"measurement": "Histologic score (±SD)", "setting": "[1]", "result": "0.5 ± 0.6"},
      {"measurement": "Histologic score (±SD)", "setting": "[1]; listed as bactobolin", "result": "suppresses histologic EAE markedly"},
      {"measurement": "Paralysis score (±SD)", "setting": "EAE [2]; 0.5 mg/Kg i.p., effector phase, Day 8-14, sacrificed on Day 15 P.I.", "result": "0 ± 0"},
      {"measurement": "Incidence of EAE (number of animals affected number of animals tested)", "setting": "EAE [2]; 0.5 mg/Kg i.p., effector phase, Day 8-14 after the immunization", "result": "suppressed the incidence of EAE markedly and 0/5"},
      {"measurement": "Histologic score (±SD)", "setting": "EAE [2]", "result": "0.1 ± 0.1"},
      {"measurement": "Histologic score (±SD)", "setting": "EAE [2]; listed as bactobolin", "result": "suppressed histologic lesion markedly"},
      {"measurement": "Paralysis score (±SD)", "setting": "EAE [3]", "result": "4.6 ± 1.2"},
      {"measurement": "Whole duration of illness (days ± SD)", "setting": "EAE [3]", "result": "4.4 ± 1.0", "unit": "days"},
      {"measurement": "Paralysis score (±SD)", "setting": "EAE [3]; listed as bactobolin", "result": "suppressed significantly"},
      {"measurement": "Whole duration of illness (days ± SD)", "setting": "EAE [3]; listed as bactobolin", "result": "no substantial influences were observed"},
      {"measurement": "Paralysis score (±SD)", "setting": "Passively Induced EAE; recipients administered Day 1 to Day 8 P.I.", "result": "0 ± 0"},
      {"measurement": "Incidence of EAE (days ± SD)", "setting": "Passively Induced EAE; recipients of 2x10^7 precultured spleen cells, administered Day 1 to Day 8 P.I.", "result": "suppressed the incidence of passively induced EAE markedly and 0/2"},
      {"measurement": "CPM ± SD (uptake of tritiated thymidine)", "setting": "lymph node cells; Con A (2 µg/mℓ), 0.5mg/kg i.p. daily Day 1-8 P.I., cells taken 11 days after sensitization, cultured 3 days", "result": "suppressed"},
      {"measurement": "lymphocyte proliferative responses to specific antigen", "setting": "lymph node cells; lymph node cells of the bactobolin-administered group, Day 11, result in words", "result": "No lymphocyte proliferative responses to specific antigen were observed"},
      {"measurement": "acute LD50 toxicity", "setting": "mouse", "result": "6.25 to 12.5", "unit": "mg/kg"}
    ]}
  ]
}
